Values of other authors, collected in US20150150473A1, “Drug-Enhanced Neurofeedback” (McLean Hospital Corporation, priority 2008, published 2015).

Conditions: in vivo

## N[C@@H]1CON=C1O [DCS, d-cycloserine]
  half-life: approximately 10 hours
